Tests used:
BRM = molecular target: T1, BRM (Homo sapiens, UniProt P51531); assay: ATPase catalytic activity of BRM, ADP-Glo in vitro biochemical assay; settings: ATPase catalytic activity, 30 nM BRM, 400 μM ATP, read-out: BRM IP50 (μM)*
T1 construct: made in house; host or cells: High Five insect cells

BRG-1 = molecular target: T2, BRG-1 (Homo sapiens, UniProt P51532); assay: ATPase catalytic activity of BRG-1, ADP-Glo in vitro biochemical assay; settings: ATPase catalytic activity, 30 nM BRG-1, 400 μM ATP, read-out: BRG1 IP50 (μM)*
T2 construct: made in house; host or cells: High Five insect cells
T2 sequence (P51532 whole entry): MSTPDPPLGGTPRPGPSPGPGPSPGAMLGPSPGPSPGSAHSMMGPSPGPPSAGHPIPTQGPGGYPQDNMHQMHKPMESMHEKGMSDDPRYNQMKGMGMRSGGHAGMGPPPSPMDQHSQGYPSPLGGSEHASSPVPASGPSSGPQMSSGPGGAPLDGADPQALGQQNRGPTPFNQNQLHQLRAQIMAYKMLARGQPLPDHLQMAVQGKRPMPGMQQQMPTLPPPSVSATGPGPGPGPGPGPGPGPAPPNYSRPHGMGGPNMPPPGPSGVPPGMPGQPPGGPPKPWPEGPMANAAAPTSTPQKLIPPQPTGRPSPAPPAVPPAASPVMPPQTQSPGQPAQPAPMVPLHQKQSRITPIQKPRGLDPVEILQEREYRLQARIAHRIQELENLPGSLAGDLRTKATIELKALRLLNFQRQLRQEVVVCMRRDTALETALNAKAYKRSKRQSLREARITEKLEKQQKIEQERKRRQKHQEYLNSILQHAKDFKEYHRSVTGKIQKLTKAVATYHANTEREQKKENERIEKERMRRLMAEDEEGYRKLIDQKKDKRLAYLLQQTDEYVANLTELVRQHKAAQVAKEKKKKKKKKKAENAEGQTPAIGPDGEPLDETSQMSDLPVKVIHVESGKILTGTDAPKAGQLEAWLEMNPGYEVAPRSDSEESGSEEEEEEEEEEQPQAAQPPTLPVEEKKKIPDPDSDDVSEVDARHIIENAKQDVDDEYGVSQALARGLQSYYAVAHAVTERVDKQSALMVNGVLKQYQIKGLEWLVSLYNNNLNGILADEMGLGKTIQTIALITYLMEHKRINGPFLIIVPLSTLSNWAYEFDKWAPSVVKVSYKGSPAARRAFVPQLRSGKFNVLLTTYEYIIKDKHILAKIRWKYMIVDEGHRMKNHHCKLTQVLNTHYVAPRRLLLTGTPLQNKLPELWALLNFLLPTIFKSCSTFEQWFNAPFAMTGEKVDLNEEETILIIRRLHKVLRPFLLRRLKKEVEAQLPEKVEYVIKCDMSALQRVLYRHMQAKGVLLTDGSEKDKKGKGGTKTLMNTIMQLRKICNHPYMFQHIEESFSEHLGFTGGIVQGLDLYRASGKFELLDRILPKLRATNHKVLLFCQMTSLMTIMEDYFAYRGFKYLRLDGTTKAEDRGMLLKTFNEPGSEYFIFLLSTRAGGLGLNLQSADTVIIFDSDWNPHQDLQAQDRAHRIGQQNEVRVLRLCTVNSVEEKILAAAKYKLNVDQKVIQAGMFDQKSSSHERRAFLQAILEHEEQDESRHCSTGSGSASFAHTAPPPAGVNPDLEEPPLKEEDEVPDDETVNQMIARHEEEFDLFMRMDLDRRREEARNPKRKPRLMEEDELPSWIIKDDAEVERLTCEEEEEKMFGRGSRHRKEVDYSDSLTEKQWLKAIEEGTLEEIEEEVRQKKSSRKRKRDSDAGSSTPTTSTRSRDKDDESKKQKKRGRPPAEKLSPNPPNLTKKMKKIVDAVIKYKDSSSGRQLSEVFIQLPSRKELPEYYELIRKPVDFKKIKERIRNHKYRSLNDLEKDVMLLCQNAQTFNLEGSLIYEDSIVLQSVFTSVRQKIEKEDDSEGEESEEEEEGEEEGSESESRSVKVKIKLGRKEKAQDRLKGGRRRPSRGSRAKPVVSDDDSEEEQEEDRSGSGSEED

T1 sequence (P51531 whole entry): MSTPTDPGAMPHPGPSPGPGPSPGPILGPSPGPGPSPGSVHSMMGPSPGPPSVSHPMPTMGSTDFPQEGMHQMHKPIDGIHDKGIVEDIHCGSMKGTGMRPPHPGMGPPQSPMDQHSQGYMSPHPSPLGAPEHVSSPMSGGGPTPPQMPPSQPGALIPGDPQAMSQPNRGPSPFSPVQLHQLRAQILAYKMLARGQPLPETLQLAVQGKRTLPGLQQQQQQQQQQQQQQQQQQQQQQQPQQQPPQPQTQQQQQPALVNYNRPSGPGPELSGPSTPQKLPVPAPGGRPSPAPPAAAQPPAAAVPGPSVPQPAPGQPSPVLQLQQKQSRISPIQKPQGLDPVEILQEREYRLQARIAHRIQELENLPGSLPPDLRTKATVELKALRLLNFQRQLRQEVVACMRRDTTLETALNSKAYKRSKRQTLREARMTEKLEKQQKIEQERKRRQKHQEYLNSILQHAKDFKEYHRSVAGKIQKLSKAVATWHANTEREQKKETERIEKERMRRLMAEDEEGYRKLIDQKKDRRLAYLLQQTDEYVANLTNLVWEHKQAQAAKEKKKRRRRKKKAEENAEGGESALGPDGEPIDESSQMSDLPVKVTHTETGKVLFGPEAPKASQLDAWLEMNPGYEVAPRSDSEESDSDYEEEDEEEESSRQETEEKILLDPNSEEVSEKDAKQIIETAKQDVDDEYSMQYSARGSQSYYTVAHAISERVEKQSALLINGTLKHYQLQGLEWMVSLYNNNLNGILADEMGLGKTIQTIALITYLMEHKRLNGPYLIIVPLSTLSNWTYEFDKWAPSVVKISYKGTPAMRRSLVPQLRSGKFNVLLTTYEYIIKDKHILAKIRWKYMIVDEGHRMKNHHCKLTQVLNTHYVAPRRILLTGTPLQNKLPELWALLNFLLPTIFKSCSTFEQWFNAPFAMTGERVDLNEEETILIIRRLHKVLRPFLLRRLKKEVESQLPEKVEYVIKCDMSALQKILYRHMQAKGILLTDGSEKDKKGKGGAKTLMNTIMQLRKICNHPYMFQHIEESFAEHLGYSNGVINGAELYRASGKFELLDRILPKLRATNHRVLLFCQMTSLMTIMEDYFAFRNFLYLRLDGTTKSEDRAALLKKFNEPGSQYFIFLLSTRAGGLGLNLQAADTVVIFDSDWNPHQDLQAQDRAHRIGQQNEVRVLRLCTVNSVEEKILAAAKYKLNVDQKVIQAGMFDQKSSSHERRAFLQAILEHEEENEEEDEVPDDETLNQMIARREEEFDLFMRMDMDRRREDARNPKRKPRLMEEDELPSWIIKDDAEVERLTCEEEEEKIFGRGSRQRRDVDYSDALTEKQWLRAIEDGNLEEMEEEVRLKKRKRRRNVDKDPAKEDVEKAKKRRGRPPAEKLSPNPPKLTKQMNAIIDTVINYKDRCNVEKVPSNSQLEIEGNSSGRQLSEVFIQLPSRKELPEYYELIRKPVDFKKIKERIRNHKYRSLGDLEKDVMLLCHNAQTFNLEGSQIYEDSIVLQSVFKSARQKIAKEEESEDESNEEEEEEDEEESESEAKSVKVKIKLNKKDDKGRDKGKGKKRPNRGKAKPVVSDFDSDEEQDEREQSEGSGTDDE

Compound	IC50 (BRM) [µM]	IC50 (BRG-1) [µM]
CS(=O)(=O)n1ccc(C(=O)NCC(=O)Nc2nc(-c3cccc(COc4ccccc4)c3)cs2)c1 [Compound 104, 1-(methylsulfonyl)-N-(2-oxo-2-((4-(3-(phenoxymethyl)phenyl)thiazol-2-yl)amino)ethyl)-1H-pyrrole-3-carboxamide]	> 0.01	> 0.01
CS(=O)(=O)n1ccc(C(=O)NCC(=O)Nc2nc(-c3cccc(CO[C@H]4CC[C@H](O)CC4)c3)cs2)c1 [Compound 105, N-(2-((4-(3-((((1R,4R)-4-hydroxycyclohexyl)oxy)methyl)phenyl)thiazol-2-yl)amino)-2-oxoethyl)-1-(methylsulfonyl)-1H-pyrrole-3-carboxamide]	> 0.01	< 0.01
CS(=O)(=O)n1ccc(C(=O)NCC(=O)Nc2nc(-c3cccc(OCc4ccncc4)c3)cs2)c1 [Compound 106, 1-(methylsulfonyl)-N-(2-oxo-2-((4-(3-(pyridin-4-ylmethoxy)phenyl)thiazol-2-yl)amino)ethyl)-1H-pyrrole-3-carboxamide]	< 0.01	< 0.01
CS(=O)(=O)n1ccc(C(=O)NCC(=O)Nc2nc(-c3cccc(COc4ccccn4)c3)cs2)c1 [Compound 107, 1-(methylsulfonyl)-N-(2-oxo-2-((4-(3-((pyridin-2-yloxy)methyl)phenyl)thiazol-2-yl)amino)ethyl)-1H-pyrrole-3-carboxamide]	> 0.01	> 0.01
CS(=O)(=O)n1ccc(C(=O)NCC(=O)Nc2nc(-c3cccc(COc4ccncc4)c3)cs2)c1 [Compound 108, 1-(methylsulfonyl)-N-(2-oxo-2-((4-(3-((pyridin-4-yloxy)methyl)phenyl)thiazol-2-yl)amino)ethyl)-1H-pyrrole-3-carboxamide]	< 0.01	> 0.01
CN1Cc2ccc(-c3csc(NC(=O)CNC(=O)c4ccn(S(C)(=O)=O)c4)n3)cc2CC1=O [Compound 109, N-(2-((4-(2-methyl-3-oxo-1,2,3,4-tetrahydroisoquinolin-6-yl)thiazol-2-yl)amino)-2-oxoethyl)-1-(methylsulfonyl)-1H-pyrrole-3-carboxamide]	> 0.01	> 0.01
CS(=O)(=O)n1ccc(C(=O)NCC(=O)Nc2nc(-c3cccc(OCC4COC4)c3)cs2)c1 [Compound 110, 1-(methylsulfonyl)-N-(2-((4-(3-(oxetan-3-ylmethoxy)phenyl)thiazol-2-yl)amino)-2-oxoethyl)-1H-pyrrole-3-carboxamide]	> 0.01	> 0.01
CS(=O)(=O)n1ccc(C(=O)NCC(=O)Nc2nc(C3CCCN(c4ccncc4)C3)cs2)c1 (stereo not drawn) [Compound 111]	> 0.1	> 0.1
Cn1ccc2ccc(-c3csc(NC(=O)CNC(=O)c4ccn(S(C)(=O)=O)c4)n3)cc2c1=O [Compound 112, N-(2-((4-(2-methyl-1-oxo-1,2-dihydroisoquinolin-7-yl)thiazol-2-yl)amino)-2-oxoethyl)-1-(methylsulfonyl)-1H-pyrrole-3-carboxamide]	< 0.01	< 0.01
CS(=O)(=O)n1ccc(C(=O)NCC(=O)Nc2nc(-c3ccn(-c4ccncc4)n3)cs2)c1 [Compound 113, 1-(methylsulfonyl)-N-(2-oxo-2-((4-(1-(pyridin-4-yl)-1H-pyrazol-3-yl)thiazol-2-yl)amino)ethyl)-1H-pyrrole-3-carboxamide]	> 0.1	> 0.1
CS(=O)(=O)n1ccc(C(=O)NCC(=O)Nc2nc(-c3cccc(C4CCN(CC(F)(F)F)CC4)c3)cs2)c1 [Compound 114, 1-(methylsulfonyl)-N-(2-oxo-2-((4-(3-(1-(2,2,2-trifluoroethyl)piperidin-4-yl)phenyl)thiazol-2-yl)amino)ethyl)-1H-pyrrole-3-carboxamide]	> 0.1	> 0.1
Cc1nccn1-c1cccc(-c2csc(NC(=O)CNC(=O)c3ccn(S(C)(=O)=O)c3)n2)c1 [Compound 115, N-(2-((4-(3-(2-methyl-1H-imidazol-1-yl)phenyl)thiazol-2-yl)amino)-2-oxoethyl)-1-(methylsulfonyl)-1H-pyrrole-3-carboxamide]	> 0.1	> 0.1
CN(C(=O)c1cccc(-c2csc(NC(=O)CNC(=O)c3ccn(S(C)(=O)=O)c3)n2)c1)c1ccccc1 [Compound 116, N-(2-((4-(3-(methyl(phenyl)carbamoyl)phenyl)thiazol-2-yl)amino)-2-oxoethyl)-1-(methylsulfonyl)-1H-pyrrole-3-carboxamide]	> 1	> 1
CS(=O)(=O)n1ccc(C(=O)NCC(=O)Nc2nc(-c3cccc(C(=O)Nc4ccncc4)c3)cs2)c1 [Compound 117, 1-(methylsulfonyl)-N-(2-oxo-2-((4-(3-(pyridin-4-ylcarbamoyl)phenyl)thiazol-2-yl)amino)ethyl)-1H-pyrrole-3-carboxamide]	> 0.01	> 0.01
CN1CC(OCc2cccc(-c3csc(NC(=O)CNC(=O)c4ccn(C(C)(C)C)c4)n3)c2)C1 [Compound 118, 1-(tert-butyl)-N-(2-((4-(3-(((1-methylazetidin-3-yl)oxy)methyl)phenyl)thiazol-2-yl)amino)-2-oxoethyl)-1H-pyrrole-3-carboxamide]	> 1	> 1
Cn1ccc(OCc2cccc(-c3csc(NC(=O)CNC(=O)c4ccn(C(C)(C)C)c4)n3)c2)n1 [Compound 119, 1-(tert-butyl)-N-(2-((4-(3-(((1-methyl-1H-pyrazol-3-yl)oxy)methyl)phenyl)thiazol-2-yl)amino)-2-oxoethyl)-1H-pyrrole-3-carboxamide]	> 0.01	> 0.1
COc1cccc(-c2csc(NC(=O)CNC(=O)c3ccn(C(C)(C)C)c3)n2)c1 [Compound 120, 1-(tert-butyl)-N-(2-((4-(3-methoxyphenyl)thiazol-2-yl)amino)-2-oxoethyl)-1H-pyrrole-3-carboxamide]	> 0.01	> 0.1
COc1cccc(-c2csc(NC(=O)CNC(=O)c3ccn(S(C)(=O)=O)c3)n2)c1 [Compound 121, N-(2-((4-(3-methoxyphenyl)thiazol-2-yl)amino)-2-oxoethyl)-1-(methylsulfonyl)-1H-pyrrole-3-carboxamide]	> 0.01	> 0.01
CC(C)(C)n1ccc(C(=O)NCC(=O)Nc2nc(-c3cccc(OCC4COC4)c3)cs2)c1 [Compound 122, 1-(tert-butyl)-N-(2-((4-(3-(oxetan-3-ylmethoxy)phenyl)thiazol-2-yl)amino)-2-oxoethyl)-1H-pyrrole-3-carboxamide]	> 0.01	> 0.01
Cn1ccc2ccc(-c3csc(NC(=O)CNC(=O)c4ccn(C(C)(C)C)c4)n3)cc2c1=O [Compound 123, 1-(tert-butyl)-N-(2-((4-(2-methyl-1-oxo-1,2-dihydroisoquinolin-7-yl)thiazol-2-yl)amino)-2-oxoethyl)-1H-pyrrole-3-carboxamide]	< 0.01	> 0.01
CN1Cc2ccc(-c3csc(NC(=O)CNC(=O)c4ccn(C(C)(C)C)c4)n3)cc2CC1=O [Compound 124, 1-(tert-butyl)-N-(2-((4-(2-methyl-3-oxo-1,2,3,4-tetrahydroisoquinolin-6-yl)thiazol-2-yl)amino)-2-oxoethyl)-1H-pyrrole-3-carboxamide]	> 0.01	> 0.1
